Source: patent US4731486A, “Hydroformylation using low volatile phosphine ligands” (Union Carbide Corporation, priority 1986, dated 1988)
Counter-ions that a name gives are not always drawn.

Legend:
[1] = Batch hydroformylation of propylene in stirred autoclave (Examples 1, 2, 11, 14, 19); conditions: 100° C., 90 psia 1:1:1 H2:CO:C3H6
Procedure: A series of various rhodium complex catalyst precursor solutions consisting essentially of the solubilized reaction product of rhodium dicarbonyl acetylacetonate and various monosulfonated triphenylphosphine metal salt ligands were prepared and employed to hydroformylate propylene into C4 aldehydes in the following manner.
Each rhodium catalytic precursor solution so prepared was then employed to hydroformylate propylene in a magnetically stirred, 100 mL capacity, stainless steel autoclave which was attached to a gas manifold for introducing gases to the desired partial pressures. The autoclave was also equipped with a pressure calibrator for determining reaction pressure to ±0.01 psia. and a platinum resistance thermometer for determining reactor solution temperatures to ±0.10° C. The reactor was heated externally by two 300 watt heating bands. The reactor solution temperature was controlled by a platinum resistance sensor connected to an external proportional temperature controller for controlling the temperature of the external band heaters.
In each non-aqueous hydroformylation reaction, about 15 milliliters (about 14 grams) of the rhodium catalytic precursor solution so prepared was charged to the autoclave reactor under nitrogen and heated to the reaction temperature employed (as given in Table 1 below). The reactor was then vented down to 5 psig. and a premixed gas mixture of 1:1:1 carbon monoxide:hydrogen:propylene was introduced into the reactor via the gas manifold (partial pressures given in Table 1) and the propylene so hydroformylated.
A comparison of the catalytic activity of aqueous and non-aqueous solutions of monosulfonated triphenylphosphine sodium salt ligand promoted catalysts in hydroformylating various molecular weight alphe-olefins was determined as follows.
Both the aqueous and non-aqueous hydroformylation reactions were conducted under identical conditions with regard to temperature, rhodium and ligand concentration, hydrogen and carbon monoxide partial pressure and olefin concentration.

[2] = Solubility of metal salt ligands in nonanal with added solubilizing agent; type: physicochemical; conditions: 25° C., nonanal with 1:4 CARBOWAX TPEG-900/TERGITOL NP-9
[3] = Continuous single pass hydroformylation of butene-1 (Examples 3, 4, 5, 7, 12)
Procedure: Continuous hydroformylation of butene-1 a monosulfonated triphenylphosphine metal salt ligand was conducted in the following manner.
The non-aqueous hydroformylation was conducted in a glass reactor operating in a continuous single pass butene-1 hydroformylation mode. The reactor consisted of a three-ounce pressure bottle submersed in an oil bath with a lass front for viewing. About 20-mL of a freshly prepared rhodium catalytic precursor solution was charged to the reactor with a syringe, after purging the system with nitrogen. […] After closing the reactor, the system was again purged with nitrogen and the oil bath was heated to furnish the desired hydroformylation reaction temperature. The hydroformylation reaction was conducted at a total gas pressure of about 160 psig., the partial pressures of hydrogen, carbon monoxide, and butene-1 being given in Table 3 below, the remainder being nitrogen and aldehyde product.
The flows of the feed gases (carbon monoxide, hydrogen, butene-1 and nitrogen) were controlled individually with mass flow meters and the feed gases dispersed into the precursor solution via microporous stainless steel spargers. The unreacted portion of the feed gases was stripped out with the product C5 aldehydes and the outlet gas analyzed over about 12 days of continuous operation.

[4] = Texanol, 240 ppm Rhodium, about 14 mole equivalents ligand (0.9 wt. %)
[5] = Texanol/PEG-600 20:1, day 0.9, 101 °C, CO 20, H2 59, C4H8 20 psia
[6] = Texanol/PEG-600 20:1, day 1.7, 101 °C, CO 19, H2 55, C4H8 18 psia
[7] = Texanol/PEG-600 20:1, day 5.0, 101 °C, CO 16, H2 47, C4H8 36 psia
[8] = Texanol/PEG-600 20:1, day 5.9, 101 °C, CO 17, H2 51, C4H8 29 psia
[9] = Texanol/PEG-600 20:1, day 7.0, 101 °C, CO 13, H2 43, C4H8 50 psia
[10] = Texanol/PEG-600 20:1, day 8.0, 101 °C, CO 17, H2 41, C4H8 36 psia
[11] = Texanol/PEG-600 20:1, day 9.0, […], CO 17, H2 36, C4H8 52 psia
[12] = Texanol/PEG-600 20:1, day 10.0, […], CO 18, H2 30, C4H8 56 psia
[13] = Texanol/PEG-600 20:1, day 11.8, […], CO 17, H2 29, C4H8 63 psia
[14] = Texanol/PEG-600 20:1, day 11.9 (so in the source), […], CO 17, H2 29, C4H8 59 psia
[15] = Texanol/PEG-600 20:1, day 12.6, 103 °C, CO 18, H2 29, C4H8 61 psia
[16] = 200 ppm Rh, about 120 mole equivalents ligand, Texanol/Carbowax PEG-600: Li 100:0, K 9:1, Rb 8:1, Cs 7:1, Ca 20:1, Ba 7:1, Sr 18:1
[17] = Texanol, day 0.8, 80 °C, CO 40, H2 39, C4H8 3 psia
[18] = Texanol, day 1.9, 80 °C, CO 38, H2 41, C4H8 4 psia
[19] = Texanol, day 2.8, 80 °C, CO 39, H2 41, C4H8 3 psia
[20] = Texanol, day 3.9, 80 °C, CO 38, H2 42, C4H8 4 psia
[21] = Texanol, day 5.0, 80 °C, CO 38, H2 42, C4H8 4 psia
[22] = Texanol, day 5.8, 80 °C, CO 38, H2 42, C4H8 5 psia
[23] = Texanol, day 6.8, 80 °C, CO 38, H2 43, C4H8 4 psia
[24] = Texanol, day 7.8, 80 °C, CO 38, H2 44, C4H8 5 psia
[25] = Texanol, day 9.0, 80 °C, CO 39, H2 43, C4H8 5 psia
[26] = Texanol, day 10.0, 80 °C, CO 42, H2 38, C4H8 6 psia
[27] = Texanol, day 10.9, 80 °C, CO 41, H2 39, C4H8 6 psia
[28] = Texanol, day 11.0 (so in the source), 80 °C, CO 41, H2 39, C4H8 6 psia
[29] = Texanol, day 12.9, 80 °C, CO 41, H2 39, C4H8 5 psia

**Q.** Which results are given for `O=S(=O)(O)c1cccc(P(c2ccccc2)C2CCCCC2)c1` (stereo not drawn) [CHDPPMS-Na, monosulfonated cyclohexyldiphenylphosphine sodium salt]?
**A.** Linear/Branched Aldehyde Mole Ratio [1, 4]: 1.6; Reaction Rate (C4 aldehydes) [1, 4]: 0.32 G moles/L/hr

**Q.** Which “Metal Salt Solubility” value ([2]; calcium salt) does the source give for `O=S(=O)(O)c1cccc(P(c2ccccc2)c2ccccc2)c1` [Ca^++, monosulfonated triphenylphosphine calcium salt] here?
**A.** 18 Wt. %

**Q.** What about the “Linear/Branched Aldehyde Mole Ratio” value [3, 5] of the same molecule?
**A.** 12.84

**Q.** And the “Rate (C5 aldehydes), daily average” value [3, 5]?
**A.** 1.27 gmoles/L/Hr

**Q.** What about the “Linear/Branched Aldehyde Mole Ratio” value [3, 6] of the same molecule?
**A.** 14.44

**Q.** What about the “Rate (C5 aldehydes), daily average” value [3, 6] of the same molecule?
**A.** 1.38 gmoles/L/Hr

**Q.** What about the “Linear/Branched Aldehyde Mole Ratio” value [3, 7] of the same molecule?
**A.** 13.06

**Q.** And the “Rate (C5 aldehydes), daily average” value [3, 7]?
**A.** 1.62 gmoles/L/Hr

**Q.** And the “Linear/Branched Aldehyde Mole Ratio” value [3, 8]?
**A.** 17.67

**Q.** And the “Rate (C5 aldehydes), daily average” value [3, 8]?
**A.** 1.64 gmoles/L/Hr

**Q.** What about the “Linear/Branched Aldehyde Mole Ratio” value [3, 9] of the same molecule?
**A.** 20.95

**Q.** And the “Rate (C5 aldehydes), daily average” value [3, 9]?
**A.** 1.85 gmoles/L/Hr

**Q.** And the “Linear/Branched Aldehyde Mole Ratio” value [3, 10]?
**A.** 18.76

**Q.** And the “Rate (C5 aldehydes), daily average” value [3, 10]?
**A.** 2.09 gmoles/L/Hr

**Q.** And the “Linear/Branched Aldehyde Mole Ratio” value [3, 11]?
**A.** 18.38

**Q.** And the “Rate (C5 aldehydes), daily average” value [3, 11]?
**A.** 2.19 gmoles/L/Hr

**Q.** What about the “Linear/Branched Aldehyde Mole Ratio” value [3, 12] of the same molecule?
**A.** 20.52

**Q.** What about the “Rate (C5 aldehydes), daily average” value [3, 12] of the same molecule?
**A.** 1.40 gmoles/L/Hr

**Q.** And the “Linear/Branched Aldehyde Mole Ratio” value [3, 13]?
**A.** 18.90

**Q.** And the “Rate (C5 aldehydes), daily average” value [3, 13]?
**A.** 1.51 gmoles/L/Hr

**Q.** And the “Linear/Branched Aldehyde Mole Ratio” value [3, 14]?
**A.** 21.86

**Q.** And the “Rate (C5 aldehydes), daily average” value [3, 14]?
**A.** 1.62 gmoles/L/Hr

**Q.** What about the “Linear/Branched Aldehyde Mole Ratio” value [3, 15] of the same molecule?
**A.** 28.03

**Q.** And the “Rate (C5 aldehydes), daily average” value [3, 15]?
**A.** 1.83 gmoles/L/Hr

**Q.** And the “Linear/Branched Aldehyde Mole Ratio” value ([1]; 200 ppm Rh, about 120 mole equivalents ligand, Texanol/Carbowax PEG-600: Li 100:0, K 9:1, Rb 8:1, Ca 20:1, Ba 7:1, calcium salt)?
**A.** 4.7

**Q.** And the “Reaction Rate (C4 aldehydes)” value ([1]; 200 ppm Rh, about 120 mole equivalents ligand, Texanol/Carbowax PEG-600: Li 100:0, K 9:1, Rb 8:1, Cs 7:1, Ca 20:1, Ba 7:1, Sr 18:1, calcium salt)?
**A.** 0.51 Gmoles/L/Hr

**Q.** Which “Metal Salt Solubility” value [2] does the source give for `O=S(=O)(O)c1cccc(P(c2ccccc2)c2ccccc2)c1` [Cs^+] here?
**A.** > 10 Wt. %

**Q.** What about the “Reaction Rate (C4 aldehydes)” value [1, 16] of the same molecule?
**A.** Declining Rate

**Q.** With `O=S(=O)(O)c1cccc(P(C2CCCCC2)C2CCCCC2)c1` [DCHPPMS-Na, monosulfonated dicyclohexylphenylphosphine sodium salt] as the molecule, how does the “Linear/Branched Aldehyde Mole Ratio” value [3, 17] read?
**A.** 1.86

**Q.** What about the “Rate (C5 aldehydes), daily average” value [3, 17] of the same molecule?
**A.** 0.86 gmoles/L/Hr

**Q.** And the “Linear/Branched Aldehyde Mole Ratio” value [3, 18]?
**A.** 1.88

**Q.** What about the “Rate (C5 aldehydes), daily average” value [3, 18] of the same molecule?
**A.** 1.02 gmoles/L/Hr

**Q.** What about the “Linear/Branched Aldehyde Mole Ratio” value [3, 19] of the same molecule?
**A.** 1.99

**Q.** What about the “Rate (C5 aldehydes), daily average” value [3, 19] of the same molecule?
**A.** 0.87 gmoles/L/Hr

**Q.** What about the “Linear/Branched Aldehyde Mole Ratio” value [3, 20] of the same molecule?
**A.** 1.84

**Q.** What about the “Rate (C5 aldehydes), daily average” value [3, 20] of the same molecule?
**A.** 0.85 gmoles/L/Hr

**Q.** What about the “Linear/Branched Aldehyde Mole Ratio” value [3, 21] of the same molecule?
**A.** 1.83

**Q.** What about the “Rate (C5 aldehydes), daily average” value [3, 21] of the same molecule?
**A.** 0.88 gmoles/L/Hr

**Q.** What about the “Linear/Branched Aldehyde Mole Ratio” value [3, 22] of the same molecule?
**A.** 1.79

**Q.** And the “Rate (C5 aldehydes), daily average” value [3, 22]?
**A.** 0.86 gmoles/L/Hr

**Q.** And the “Linear/Branched Aldehyde Mole Ratio” value [3, 23]?
**A.** 1.95

**Q.** And the “Rate (C5 aldehydes), daily average” value [3, 23]?
**A.** 0.80 gmoles/L/Hr

**Q.** What about the “Linear/Branched Aldehyde Mole Ratio” value [3, 24] of the same molecule?
**A.** 1.78

**Q.** And the “Rate (C5 aldehydes), daily average” value [3, 24]?
**A.** 0.86 gmoles/L/Hr

**Q.** What about the “Linear/Branched Aldehyde Mole Ratio” value [3, 25] of the same molecule?
**A.** 1.75

**Q.** And the “Rate (C5 aldehydes), daily average” value [3, 25]?
**A.** 0.72 gmoles/L/Hr

**Q.** What about the “Linear/Branched Aldehyde Mole Ratio” value [3, 26] of the same molecule?
**A.** 1.79

**Q.** And the “Rate (C5 aldehydes), daily average” value [3, 26]?
**A.** 0.94 gmoles/L/Hr

**Q.** What about the “Linear/Branched Aldehyde Mole Ratio” value [3, 27] of the same molecule?
**A.** 1.89

**Q.** And the “Rate (C5 aldehydes), daily average” value [3, 27]?
**A.** 0.95 gmoles/L/Hr

**Q.** And the “Linear/Branched Aldehyde Mole Ratio” value [3, 28]?
**A.** 1.92

**Q.** And the “Rate (C5 aldehydes), daily average” value [3, 28]?
**A.** 0.99 gmoles/L/Hr

**Q.** What about the “Linear/Branched Aldehyde Mole Ratio” value [3, 29] of the same molecule?
**A.** 1.77

**Q.** What about the “Rate (C5 aldehydes), daily average” value [3, 29] of the same molecule?
**A.** 0.95 gmoles/L/Hr

**Q.** What about the “Linear/Branched Aldehyde Mole Ratio” value [1, 4] of the same molecule?
**A.** 1.2

**Q.** What about the “Reaction Rate (C4 aldehydes)” value [1, 4] of the same molecule?
**A.** 0.78 G moles/L/hr

**Q.** With `O=S(=O)(O)c1cccc(P(c2ccccc2)c2ccccc2)c1` [K^+] as the molecule, how does the “Linear/Branched Aldehyde Mole Ratio” value ([1]; 200 ppm Rh, about 120 mole equivalents ligand, Texanol/Carbowax PEG-600: Li 100:0, K 9:1, Rb 8:1, Ca 20:1, Ba 7:1) read?
**A.** 5.1

**Q.** What about the “Reaction Rate (C4 aldehydes)” value [1, 16] of the same molecule?
**A.** 0.87 Gmoles/L/Hr

**Q.** With `O=S(=O)(O)c1cccc(P(c2ccccc2)c2ccccc2)c1` [Sr^++] as the molecule, how does the “Reaction Rate (C4 aldehydes)” value [1, 16] read?
**A.** No Rate
